Some results are limits rather than exact numbers.

Series [1] relates to Monographella nivalis (Microdochium nivale). Briefly: Monographella nivalis (Microdochium nivale) / liquid culture (foot rot cereals). The class given is cell-based. As to conditions: compared to untreated control, growth inhibition determined photometrically 4-5 days after application.
The subject of series [2] is Mycosphaerella graminicola (Septoria tritici). Briefly: Mycosphaerella graminicola (Septoria tritici) / liquid culture (Septoria blotch). The class given is cell-based. Conditions: Zymoseptoria tritici, compared to untreated control, growth inhibition determined photometrically 4-5 days after application.
For series [3], the system named is Glomerella lagenarium (Colletotrichum lagenarium). Briefly: Glomerella lagenarium (Colletotrichum lagenarium) / liquid culture (anthracnose). The series is classed as cell-based. Conditions: Colletotrichum orbiculare, compared to untreated control, growth inhibition measured photometrically 3-4 days after application.
Series [4] concerns Botryotinia fuckeliana (Botrytis cinerea). Briefly: Botryotinia fuckeliana (Botrytis cinerea) / liquid culture (gray mould). As to conditions: 72 h, compared to untreated control, growth inhibition determined photometrically 3-4 days after application. The series is classed as cell-based.
Series [5] relates to Magnaporthe grisea (Pyricularia oryzae). Briefly: microbe, parasite or virus in culture. The class given is cell-based. Conditions: read-out: control of Magnaporthe grisea.
For a further series, the system named is Fusarium culmorum. Briefly: microbe, parasite or virus in culture. The class given is cell-based. Conditions: read-out: control of Fusarium culmorum.
The test system of the next series is Sclerotinia sclerotiorum. The experiment in a line: microbe, parasite or virus in culture. The class given is cell-based. Conditions: read-out: control of Sclerotinia sclerotiorum.

For `CC1(Cc2ccccc2)CC(C)(C)OC(c2cnc3c(F)cccc3c2)=N1` (centres unmarked) [E-17, 4-benzyl-2-(8-fluoro-3-quinolyl)-4,6,6-trimethyl-5H-1,3-oxazine], the melting point fell in the range of 115 to 116 °C. The inhibition of growth at 20 ppm in series [1] was no less than 80%. The inhibition of growth at 20 ppm in series [2] is no less than 70%. Also, in series [3], the inhibition of growth at 20 ppm is no less than 80%. Also, the inhibition of growth at 20 ppm in series [4] is no less than 80%. The inhibition of growth at 20 ppm in series [5] was no less than 80%. For the same compound, in the series on Fusarium culmorum, the inhibition of growth at 20 ppm is no less than 80%.
Compound `CC1(C)CC(Cc2ccccc2)N=C(c2cnc3c(C#N)c(F)ccc3c2)O1` (centres unmarked) [E-28, 3-(4-benzyl-6,6-dimethyl-4,5-dihydro-1,3-oxazin-2-yl)-7-fluoro-quinoline-8-carbonitrile] showed a melting point of 126 to 133 °C. Besides, the inhibition of growth at 20 ppm in series [1] is no less than 80%. Also, in series [4], the inhibition of growth at 20 ppm was no less than 80%. For the same compound, the inhibition of growth at 20 ppm in series [5] was no less than 80%.
Turning to `Fc1ccc2cc(C3=NC(Cc4ccccc4)CC(CI)O3)cnc2c1F` (centres unmarked) [E-26, 4-benzyl-2-(7,8-difluoro-3-quinolyl)-6-(iodomethyl)-5,6-dihydro-4H-1,3-oxazine], the melting point was 137 to 139 °C. In addition, the inhibition of growth at 20 ppm in series [4] is no less than 80%. Besides, the inhibition of growth at 20 ppm in the series on Fusarium culmorum is no less than 80%.
As for `Cc1c(C2=NC(C)(Cc3ccccc3)CC(C)(C)O2)cnc2c(F)cccc12` (centres unmarked) [E-15, 4-benzyl-2-(8-fluoro-4-methyl-3-quinolyl)-4,6,6-trimethyl-5H-1,3-oxazine], the inhibition of growth at 20 ppm in series [1] is no less than 80%; in series [2], no less than 70%; in series [3], no less than 80%; in series [4] it was no less than 80%; in series [5] it was no less than 80%.
Compound `CC1(C)CC(Cc2ccccc2)N=C(c2cnc3c(F)c(Cl)ccc3c2)O1` (centres unmarked) [E-29, 4-benzyl-2-(7-chloro-8-fluoro-3-quinolyl)-6,6-dimethyl-4,5-dihydro-1,3-oxazine] gave a melting point of 135 to 137 °C. In series [1], this compound showed an inhibition of growth at 20 ppm of no less than 80%. The inhibition of growth at 20 ppm in series [2] is no less than 70%. The compound further returned an inhibition of growth at 20 ppm in series [3] of no less than 80%.
For the compound `CC1(C)CC(Cc2ccccc2)N=C(c2cnc3cc(Cl)ccc3c2)O1` (centres unmarked) [E-33, 4-benzyl-2-(7-chloro-3-quinolyl)-6,6-dimethyl-4,5-dihydro-1,3-oxazine], the inhibition of growth at 20 ppm in series [1] was no less than 80%; in series [2], no less than 70%.
As for `CC1(C)CC(Cc2ccccc2)N=C(c2cnc3c(C#N)cccc3c2)O1` (centres unmarked) [E-2, 3-(4-benzyl-6,6-dimethyl-4,5-dihydro-1,3-oxazin-2-yl)quinoline-8-carbonitrile], the inhibition of growth at 20 ppm in series [1] was no less than 80%; in series [2] it was no less than 70%; in the series on Fusarium culmorum, no less than 80%.
With `C[C@@]1(Cc2ccccc2)C[C@](C)(CCl)OC(c2cnc3c(F)cccc3c2)=N1` [E-11, (4R,6R)-4-benzyl-6-(chloromethyl)-2-(8-fluoro-3-quinolyl)-4,6-dimethyl-5H-1,3-oxazine], the inhibition of growth at 20 ppm in series [1] was no less than 80%; in series [2] it was no less than 70%; in series [3], no less than 80%; in series [4], no less than 80%; in series [5], no less than 80%; in the series on Fusarium culmorum, no less than 80%.
`Cc1cccc2cc(C3=NC(Cc4ccccc4)CC(C)(C)O3)cnc12` (centres unmarked) [E-4, 4-benzyl-6,6-dimethyl-2-(8-methyl-3-quinolyl)-4,5-dihydro-1,3-oxazine] displayed a melting point of 120 to 122 °C. Further, the inhibition of growth at 20 ppm in series [1] was no less than 80%. Further, in series [2], the inhibition of growth at 20 ppm was no less than 70%. The compound further came in with an inhibition of growth at 20 ppm in series [4] of no less than 80%.
On to `CC1(C)CC(Cc2ccccc2)N=C(c2cnc3cc(F)ccc3c2)O1` (centres unmarked) [E-32, 4-benzyl-2-(7-fluoro-3-quinolyl)-6,6-dimethyl-4,5-dihydro-1,3-oxazine], for which the inhibition of growth at 20 ppm is no less than 80% in series [1], no less than 70% in series [2], no less than 80% in series [4] and no less than 80% in the series with Fusarium culmorum.
Compound `CC1(C)CC(Cc2ccccc2)N=C(c2cc3cccc(F)c3nc2F)O1` (centres unmarked) [E-30, 4-benzyl-2-(2,8-difluoro-3-quinolyl)-6,6-dimethyl-4,5-dihydro-1,3-oxazine] gave a melting point of 105 to 107 °C. Also, in series [1], the inhibition of growth at 20 ppm was no less than 80%. Further, the inhibition of growth at 20 ppm in series [2] was no less than 70%. In addition, the inhibition of growth at 20 ppm in series [4] was no less than 80%. In series [5], the inhibition of growth at 20 ppm was no less than 80%. Also, the inhibition of growth at 20 ppm in the series with Fusarium culmorum is no less than 80%.
Take `CC1(C)CC(C)(C(F)(F)c2ccccc2)N=C(c2cnc3c(F)cccc3c2)O1` (centres unmarked) [E-14, 4-[difluoro(phenyl)methyl]-2-(8-fluoro-3-quinolyl)-4,6,6-trimethyl-5H-1,3-oxazine]: the melting point fell in the range of 101 to 105 °C. This compound returned an inhibition of growth at 20 ppm in series [1] of no less than 80%. In series [2], this compound had an inhibition of growth at 20 ppm of no less than 70%. The compound also displayed an inhibition of growth at 20 ppm in series [3] of no less than 80%. Moreover, the inhibition of growth at 20 ppm in series [4] was no less than 80%. Moreover, the inhibition of growth at 20 ppm in series [5] was no less than 80%.
Compound `CC1(Cc2ccccc2)CC(C)(C)OC(c2cnc3c(F)cccc3c2)=N1` (centres unmarked) [F-1] yielded a melting point of 109 to 111 °C.
With `CC1(C)CC(Cc2ccccc2)N=C(c2cc3cccc(F)c3nc2Cl)O1` (centres unmarked) [E-36, 4-benzyl-2-(2-chloro-8-fluoro-3-quinolyl)-6,6-dimethyl-4,5-dihydro-1,3-oxazine], the inhibition of growth at 20 ppm in series [2] was no less than 70%.
`CC1(Cc2ccccc2)CC(C)(C)OC(c2cnc3c(F)cccc3c2)=N1` (centres unmarked) [F-2] showed a melting point of 111 to 112 °C. In the series with Sclerotinia sclerotiorum, the inhibition of growth at 20 ppm was no less than 80%.
In turn, `CC1(C)CC(Cc2ccccc2)N=C(c2cnc3c(F)c(F)ccc3c2)O1` (centres unmarked) [F-6] had a melting point of 102 to 105 °C.
Take `CC1(CCl)CC(Cc2ccccc2)N=C(c2cnc3c(F)c(F)ccc3c2)O1` (centres unmarked) [E-1, 4-benzyl-6-(chloromethyl)-2-(7,8-difluoro-3-quinolyl)-6-methyl-4,5-dihydro-1,3-oxazine]: the inhibition of growth at 20 ppm in series [1] was no less than 80%; in series [2] it was no less than 70%; in series [4], no less than 80%; in the series on Fusarium culmorum, no less than 80%.
Take `CC1CC(Cc2ccccc2)N=C(c2cnc3c(F)c(F)ccc3c2)O1` (single isomer, unassigned) [E-25, 4-benzyl-2-(7,8-difluoro-3-quinolyl)-6-methyl-5,6-dihydro-4H-1,3-oxazine]: the inhibition of growth at 20 ppm in series [1] was no less than 80%; in series [2], no less than 70%; in series [3], no less than 80%; in series [4], no less than 80%; in the series with Fusarium culmorum it was no less than 80%.
`CC1(C)CC(Cc2ccccc2)N=C(c2cnc3c(F)c(F)ccc3c2)O1` (centres unmarked) [E-8, 4-benzyl-2-(7,8-difluoro-3-quinolyl)-6,6-dimethyl-4,5-dihydro-1,3-oxazine]: the melting point was 93 to 96 °C. The inhibition of growth at 20 ppm in series [3] is no less than 80%.
For `N#Cc1c(F)ccc2cc(C3=NC(Cc4ccccc4)CC4(CCCC4)O3)cnc12` (centres unmarked) [E-27, 3-(9-benzyl-6-oxa-8-azaspiro[4.5]dec-7-en-7-yl)-7-fluoro-quinoline-8-carbonitrile], the inhibition of growth at 20 ppm in series [4] was no less than 80%.
On to `CC1(C)CC(Cc2ccccc2)(C(F)(F)F)N=C(c2cnc3c(F)cccc3c2)O1` (centres unmarked) [E-12, 4-benzyl-2-(8-fluoro-3-quinolyl)-6,6-dimethyl-4-(trifluoromethyl)-5H-1,3-oxazine], for which the inhibition of growth at 20 ppm in series [1], in series [3], in series [4] and in series [5] was no less than 80% each time.
On to `CC1(C)CC(Cc2ccccc2)N=C(c2cnc3c(F)c(C#N)ccc3c2)O1` (centres unmarked) [E-34, 3-(4-benzyl-6,6-dimethyl-4,5-dihydro-1,3-oxazin-2-yl)-8-fluoro-quinoline-7-carbonitrile], for which the inhibition of growth at 20 ppm in series [1] and in series [3] was no less than 80% in each case.
`Fc1ccc2cc(C3=NC(Cc4ccccc4)CC4(CCCC4)O3)cnc2c1Cl` (centres unmarked) [E-35, 9-benzyl-7-(8-chloro-7-fluoro-3-quinolyl)-6-oxa-8-azaspiro[4.5]dec-7-ene] registered a melting point of 150 to 151 °C. In series [1], this compound gave an inhibition of growth at 20 ppm of no less than 80%. In series [2], the inhibition of growth at 20 ppm was no less than 70%. In series [4], this compound showed an inhibition of growth at 20 ppm of no less than 80%.
The compound `CC1(C)CC(Cc2ccccc2)N=C(c2cnc3c(F)c(F)ccc3c2)S1` (centres unmarked) [E-6, 4-benzyl-2-(7,8-difluoro-3-quinolyl)-6,6-dimethyl-4,5-dihydro-1,3-thiazine] gave a melting point of 153 to 155 °C. For the same compound, the inhibition of growth at 20 ppm in series [1] was no less than 80%. Also, in series [3], the inhibition of growth at 20 ppm was no less than 80%. Also, the inhibition of growth at 20 ppm in series [4] is no less than 80%. In the series on Fusarium culmorum, the inhibition of growth at 20 ppm is no less than 80%.
With `CC1(C)CC(Cc2ccccc2)N=C(c2cnc3ccccc3c2)O1` (centres unmarked) [E-5, 4-benzyl-6,6-dimethyl-2-(3-quinolyl)-4,5-dihydro-1,3-oxazine], the inhibition of growth at 20 ppm in series [1] was no less than 80%; in series [2], no less than 70%; in series [3], no less than 80%; in series [4], no less than 80%; in the series on Fusarium culmorum, no less than 80%.
For the compound `CC1(C)CC(Cc2ccccc2)N=C(c2cnc3c(Cl)cccc3c2)O1` (centres unmarked) [E-3, 4-benzyl-2-(8-chloro-3-quinolyl)-6,6-dimethyl-4,5-dihydro-1,3-oxazine], the melting point is 150 to 152 °C. Further, the inhibition of growth at 20 ppm in series [1] was no less than 80%. The compound also came in with an inhibition of growth at 20 ppm in series [2] of no less than 70%. In series [4], this compound showed an inhibition of growth at 20 ppm of no less than 80%.

The values above are taken from patent US12012399B2, “Microbiocidal quinoline dihydro-(thiazine)oxazine derivatives” (priority 2018, dated 2024).
